The text below walks through data of patent publication US12351565B2, “Aromatic compound and preparation method therefor and use thereof” (SHANGHAI JIANHE PHARMACEUTICAL & TECHNOLOGY CO. LTD., priority 2018, dated 2025).

Counter-ions that a name gives are not always drawn. Like-named read-outs stand apart in the source and are kept apart here.

Series [1] has as its system C57 mice. The series is described as follows: Forced swimming experiment, intraperitoneal administration to mice. The format is in vivo. To be noted: for inhibition in vivo at 10 mg/kg: Mus musculus, ip. Here is the method:
The forced-swimming test is currently the most widely used classic method to evaluate the antidepressant effects of compounds in rodents. […] The time in immobile state of experimental animal is observed and recorded, which can be used to evaluate the effect of antidepressant compounds.
1 h and 24 h after a single intraperitoneal administration of 10 mg/kg, forced swimming tests were respectively carried out to investigate the effects of different compounds on depression-like behaviors of C57 mice.
(§1) Experimental animals were 6-week aged C57 mice, male, and C57 mice were purchased from Shanghai SLAC Laboratory Animal Co., Ltd., with a body weight of 20.45±0.19 g. Before the experiment, they arrived at the Animal Feeding Center of Shanghai Institute of Materia Medica, Chinese Academy of Sciences (Animal Production License: SCXK9[Shanghai]2004-0002, usage license: SYXK[Shanghai]2003-0029), and adapted for 3 days or more in animal facilities. They were bred at 6 animals/cage. The breeding environment was room temperature 23±0.2° C., with 12/12 hours alternation of day and night. Before the behavioral test, the animals should be moved to the behavioral test operation room 2 hours in advance to adapt to the environment and reduce their tension.
Preparation of the test product: each test compound was accurately weighed and dissolved in 0.9% NaCl solution, mixed thoroughly, and prepared as a 1 mg/ml solution, set aside.
(§2) 24 hours before the administration, the mice were placed in a cylindrical tank to adapt to the aquatic environment for 10 min. On the day of the behavioral test, the animals were respectively administered intraperitoneally once at 1 h and 24 h before the behavioral test. The mice were placed individually into a cylindrical glass tank with a height of 30 cm and a diameter of 20 cm. The water depth in the tank was 15 cm, so that the animals could not escape from the glass tank and their feet and tails could not touch the bottom of the tank, the water temperature was 23° C.-25° C. A 6 minute video was taken after the mouse entered into water. Since most animals were very active in the first two minutes, the immobility time in the following 4 minute were calculated (criterion of immobility: the mouse stops struggling in the water, stays still and has small limbs movement to maintain balance or to keep a floating state).
The antidepressant effect of a compound was evaluated by the ability of the compound to reduce the immobility time of the animal in the forced swimming test as compared with the blank group. The shorter the immobility time of the animal to be tested, the higher the inhibition rate and the stronger the antidepressant activity. Inhibition rate1 h(%)=immobility time(blank, 1 h)−immobility time(administration, 1 h)/immobility time(blank, 1 h)×100% Inhibition rate24 h(%)=immobility time(blank, 24 h)−immobility time(administration, 24 h)/immobility time(blank, 24 h)×100%

Series [2] concerns C57 mice. The series is described as follows: Forced swimming experiment, oral administration to mice. Type of series: in vivo. The settings on record: C57 mice. On the procedure: 1 h and 24 h after a single oral administration of 20 mg/kg, forced swimming experiments were then carried out to investigate the effects of different compounds on depression-like behavior in C57 mice.
as §1, with “male,” for “male, and”
Preparation of the test product: each test compound was accurately weighed and dissolved in 0.9% NaCl solution, mixed thoroughly, and prepared into 1 mg/ml and 2 mg/ml solutions respectively, and set aside.
as §2, with “intragastrically” for “intraperitoneally”
The antidepressant effect of a compound was evaluated by the ability of the compound to reduce the immobility time of the animal in the forced swimming test as compared with the blank group. Inhibition rate1 h(%)=immobility time(blank, 1 h)−immobility time(administration, 1 h)/immobility time(blank, 1 h)×100% Inhibition rate24h(%)=immobility time(blank, 24 h)−immobility time(administration, 24 h)/immobility time(blank, 24 h)×100%

For the next series, the target named is T1, hERG potassium channel (Homo sapiens, UniProt Q12809).
T1 construct: expressed in transfected cells
Nature of the series: hERG potassium channel inhibition experiment (automatic patch clamp, CHO-hERG cells). Type of series: cell-based. To be noted: Qpatch, highest tested concentration 40 μM, read-out: IC50, blocking effect on the hERG potassium current. On the procedure: Fully automatic patch clamps were used to test the blocking effect of the compounds of the present invention on the hERG potassium current on a stable cell line transfected with hERG potassium channels.
CHO-hERG cells were cultured in 175 cm^2 culture flask. When the cell grew to 60-80% confluence, the culture medium was removed. The cells were washed with 7 ml PBS (Phosphate Buffered Saline) once, and then 3 ml Detachin was added to digest.
After the digestion was completed, 7 ml culture medium was added to neutralize. The mixture was centrifuged, and after the supernatant was removed, 5 ml culture medium was added to resuspend to ensure the cell density was 2×10^6-5×10^6/ml.
Single-cell high-impedance sealing and whole-cell mode formation were all automatically completed by using the Qpatch instrument. After the recording mode was obtained, the cell was clamped at −80 millivolts. Before +40 millivolt depolarization stimulation for 5 seconds was given, −50 millivolt pre-voltage for 50 millisecond was first given, then repolarized to −50 millivolt for 5 seconds, and then returned to −80 millivolt. This voltage stimulus was applied every 15 seconds. After recording for 2 min, extracellular fluid was given, and recording was conducted for 5 min, and then the dosing process started. The compound concentration started from the lowest test concentration, and each test concentration was given for 2.5 min. […] At least 3 cells per concentration (n≥3) were tested.
20 mM compound mother liquor was diluted with extracellular fluid. 5 μL of 20 mM compound mother liquor was taken and added into 2495 μL extracellular fluid, so that it was diluted 500 times to 40 μM, and was then serially diluted 3 times in an extracellular fluid containing 0.2% DMSO to obtain the final concentration to be tested.
The highest tested concentration was 40 μM, and the concentrations were in order as follows: 40, 13.33, 4.44, 1.48, 0.49, 0.16 μM, totally 6 concentrations.
Experimental data were analyzed by XLFit software.

The nature of series [3]: In vivo pharmacokinetic experiment in mice. To be noted: C57 mice. On the procedure: Healthy male C57 mice were randomly divided into groups with 3 mice in each group, and the test compounds were administrated intragastrically or by intravenous injection. See Table 6 below for specific arrangements:
(§3) Each test compound was dissolved in physiological saline to prepare a certain concentration of solution for administration.
(§4) One day before administration, the mice were fasted and allowed to drink freely for 12-14 h. The mice were fed 4 h after administration.
0.030 mL of blood was took from each animal each time through the orbit, and anticoagulated with EDTAK2. The collection time points were as follows: in PO group, 5 min, 15 min, 30 min, 1 h, 2 h, 4 h, 6 h, 8 h, 24 h after administration of test substance; in IV group, 2 min, 5 min, 15 min, 30 min, 1 h, 2 h, 4 h, 6 h, 8 h, 24 h after administration of test substance. After blood samples were collected, they were placed on ice and centrifuged to separate the plasma within 30 minutes (centrifugation conditions: 5000 rpm, 10 minutes, 4° C.). The sample were stored at −80° C. before analysis.

Series [4] is described as follows: Distribution in mouse brain tissue. The format is in vivo, C57 mice. The settings on record: male, brain, po; C57 mouse, 10 mg/kg p.o., 30 min. Here is the method:
Healthy male C57 mice were randomly divided into groups with 3 mice in each group, and the test compound was administrated intragastrically. See Table 10 below for specific arrangements:
as §3, §4
After the animals were bled, the brain tissue was collected. After washing, 50% ice methanol was added for homogenate at 1:4 (m/v). The collection time points was 10 min, 15 min, 30 min, 1 h, 2 h after administration of the test substance; 30.0 μL of tissue sample was taken (the sample was taken out from the refrigerator at −80° C., vortexed for 30 seconds after natural melting at room temperature) and added into a 1.5 mL centrifuge tube. 300.0 μL internal standard solution (30 ng/mL […] acetonitrile solution) was added, the mixture was vortex for 60 seconds and then centrifuged for 3 minutes (centrifugal force was 12000 rpm); 75 μL of the supernatant was taken and transferred to 96-well injection plate loaded with equal volume of water, shaken and mixed well, and subjected to LC-MS/MS analysis, wherein injection volume was 10 μL.

For series [5] the following is noted: 30 mg/kg intraperitoneally, literature (Journal of Pharmaceutical and Biomedical Analysis, 2018, 148, 288-297); cited from earlier work.
Setting [6] is: 1 h, read-out: 1 h inhibition rate.
Setting [7] is: 24 h, read-out: 24 h inhibition rate.
Where [8] appears, read: inhibition of immobility time, forced swimming 1 h after single oral (intragastric) 20 mg/kg.
[9] abbreviates: inhibition of immobility time, forced swimming 24 h after single oral (intragastric) 20 mg/kg.
Setting [10] is: male, mouse, iv, 5 mg/kg i.v., plasma.
Setting [11] is: male, mouse, po, 20 mg/kg p.o., plasma.

T1 sequence (Q12809 whole entry): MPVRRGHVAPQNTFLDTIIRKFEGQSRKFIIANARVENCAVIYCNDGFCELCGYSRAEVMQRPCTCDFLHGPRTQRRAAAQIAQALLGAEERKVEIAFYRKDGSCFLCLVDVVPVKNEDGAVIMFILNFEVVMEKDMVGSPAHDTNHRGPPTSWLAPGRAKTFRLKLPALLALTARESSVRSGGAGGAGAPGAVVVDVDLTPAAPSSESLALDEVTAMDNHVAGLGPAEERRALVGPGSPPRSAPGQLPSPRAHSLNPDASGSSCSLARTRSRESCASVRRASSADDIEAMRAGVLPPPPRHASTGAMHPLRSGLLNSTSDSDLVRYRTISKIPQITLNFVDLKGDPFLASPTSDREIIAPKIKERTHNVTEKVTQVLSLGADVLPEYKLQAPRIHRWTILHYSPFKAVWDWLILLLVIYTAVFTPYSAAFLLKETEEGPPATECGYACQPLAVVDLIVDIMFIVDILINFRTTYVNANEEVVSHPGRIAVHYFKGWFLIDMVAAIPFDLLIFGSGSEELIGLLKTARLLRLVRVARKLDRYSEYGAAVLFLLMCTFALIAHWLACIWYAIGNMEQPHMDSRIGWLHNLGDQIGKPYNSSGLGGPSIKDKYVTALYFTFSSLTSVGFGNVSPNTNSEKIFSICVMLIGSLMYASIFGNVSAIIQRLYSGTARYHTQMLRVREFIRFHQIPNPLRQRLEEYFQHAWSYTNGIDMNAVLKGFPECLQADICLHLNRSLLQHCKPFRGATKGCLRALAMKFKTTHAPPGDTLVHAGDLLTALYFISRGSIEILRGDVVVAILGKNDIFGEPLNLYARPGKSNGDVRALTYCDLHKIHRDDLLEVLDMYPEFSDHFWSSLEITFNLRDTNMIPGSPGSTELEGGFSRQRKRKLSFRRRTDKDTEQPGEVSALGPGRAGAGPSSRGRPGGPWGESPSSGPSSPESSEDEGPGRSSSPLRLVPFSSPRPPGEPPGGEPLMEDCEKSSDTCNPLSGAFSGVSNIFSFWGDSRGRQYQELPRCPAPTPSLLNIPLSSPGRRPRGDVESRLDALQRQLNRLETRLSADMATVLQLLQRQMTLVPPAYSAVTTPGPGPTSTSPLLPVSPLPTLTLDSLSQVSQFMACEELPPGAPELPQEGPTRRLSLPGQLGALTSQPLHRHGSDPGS

Regarding `Cl.NC1(c2cccc(F)c2F)CCCC(O)C1=O` (stereo not drawn) [Compound 44, 2-amino-2-(2,3-difluorophenyl)-6-hydroxycyclohexane-1-one hydrochloride], the inhibition in vivo at 10 mg/kg with C57 mice [1] (setting [6]) turned out to be 36.5 ± 2.9%; in the series on C57 mice [1] (setting [7]), 53.5 ± 0.2%. For the same compound, in the series with C57 mice [2] (setting [8]), the “1 h inhibition rate” value was determined as 27.3 ± 1.2%. Besides, in the series with C57 mice [2] (setting [9]), the “24 h inhibition rate” value is 22.3 ± 2.3%. Moreover, the IC50 on hERG potassium channel was above 40 µM.

As for `NC1(c2ccccc2C(F)(F)F)CCCC(O)C1=O` (stereo not drawn) [Compound 45, 2-amino-6-hydroxy-2-(2-(trifluoromethyl)phenyl)cyclohexane-1-one hydrochloride], the inhibition in vivo at 10 mg/kg in the series on C57 mice [1] (setting [6]) came out at 33 ± 4.1%; in the series on C57 mice [1] (setting [7]), 44.5 ± 2.2%. Besides, the concentration for half-maximal inhibition (IC50) on hERG potassium channel was above 40 µM.

For the compound `Cl.NC1(c2ccc(C(F)(F)F)cc2)CCCC(O)C1=O` (stereo not drawn) [Compound 46, 2-amino-6-hydroxy-2-(4-(trifluoromethyl)phenyl)cyclohexane-1-one hydrochloride], the results for the inhibition in vivo at 10 mg/kg with C57 mice [1] (setting [6]) and with C57 mice [1] (setting [7]) were 34.7 ± 4.1% and 43.5%, respectively. Also, the “1 h inhibition rate” value in the series on C57 mice [2] (setting [8]) is recorded as 31.2 ± 4.7%. Besides, the “24 h inhibition rate” value with C57 mice [2] (setting [9]) stood at 32.3 ± 1.5%. Moreover, the IC50 on hERG potassium channel was above 40 µM.

In the case of `Cl.N[C@@]1(c2cccc(OC(F)(F)F)c2F)CCC[C@@H](O)C1=O` [Compound 64, (2R,6R)-2-amino-2-(2-fluoro-3-(trifluoromethoxy)phenyl)-6-hydroxycyclohexane-1-one hydrochloride], in the series on C57 mice [2] (setting [8]), the “1 h inhibition rate” value was 36.5 ± 5.3%. In the series with C57 mice [2] (setting [9]), the “24 h inhibition rate” value is listed as 34.5 ± 1.0%. In addition, in series [3] (5 mg/kg i.v., plasma), the AUC0-t turned out to be 4817 ngh/mL and the “AUC0-∞” value stood at 4838 ngh/mL. This compound came in with a F in series [3] (20 mg/kg p.o. vs 5 mg/kg i.v.) of 66.2%. Besides, in series [3] (20 mg/kg p.o., plasma), the AUC0-t came to 12708 ngh/mL and the “AUC0-∞” value turned out to be 12816 ngh/mL. In series [3] (setting [10]), this compound gave an MRT of 52.8 min and a half-life of 52.2 min. This compound displayed a clearance in series [3] (male, mouse, plasma, iv, 5 mg/kg i.v.) of 17.2 mL/min/kg. The Vd in series [3] (male, mouse, plasma, iv, 5 mg/kg i.v., read-out: Vss) is 0.91 L/kg. In addition, in series [3] (setting [11]), the highest concentration (Cmax) amounted to 11900 ng/mL, the MRT was found to be 125 min, the time to peak (Tmax) is 5 min and the half-life was 239 min. For the same compound, the concentration at 30 min in series [4] was determined as 5740 ng/g. Also, the IC50 on hERG potassium channel was above 40 µM.

As to `NC1(c2c(F)cc(F)cc2F)CCCC(O)C1=O` (stereo not drawn) [Compound 73, 2-amino-6-hydroxy-2-(2,4,6-trifluorophenyl)cyclohexane-1-one hydrochloride], the figures for the inhibition in vivo at 10 mg/kg with C57 mice [1] (setting [6]) and with C57 mice [1] (setting [7]) were 38.6 ± 6% and 36.9 ± 3.9%, respectively. Also, the IC50 at hERG potassium channel was above 40 µM.

Regarding `CNC1(c2ccccc2Cl)CCCCC1=O` (stereo not drawn) [Ketamine, ketamine, reference compound], the inhibition in vivo at 10 mg/kg in the series with C57 mice [1] (setting [6]) was 29.2%; in the series on C57 mice [1] (setting [7]), 35.4 ± 7.9%. Besides, the “1 h inhibition rate” value with C57 mice [1] (inhibition of immobility time, forced swimming 1 h after single intraperitoneal 10 mg/kg, C57 mice) came out at 29.2 ± 4.6%; in the series with C57 mice [2] (control given intraperitoneally 10 mg/kg, 1 h) it was 22.7 ± 0.2%. Also, the “24 h inhibition rate” value with C57 mice [2] (control given intraperitoneally 10 mg/kg, 24 h) was found to be 25.1 ± 2.7%. In series [5], the Brain tissue concentration is recorded as 1929 ng/g.
